According to patent US11331298B2, “Powder solid dispersions comprising quercetin, process for their preparation and formulations thereof” (INDENA S.P.A., priority 2017, dated 2022):

Legend:
[1] = Solubility studies in simulated gastro-intestinal fluids; assay type: physicochemical; conditions: excess analyte, magnetic stirring 2 hours, HPLC
Source text: Quercetin dihydrate, quercetin powder solid dispersion obtained in Example 1 and a mechanical (physical) mixture of the component of the said solid dispersion were subjected to comparative solubility experiments, in the presence of high excess of analyte, using the following simulated gastro-intestinal fluids: • fasted state simulated gastric fluid; • fasted state simulated intestinal fluid; • fed state simulated intestinal fluid.
Equivalent amounts of quercetin were used during the experiments. Quercetin dihydrate, quercetin powder solid dispersion of Example 1 and the mechanical (physical) mixture were kept under magnetic stirring for 2 hours. The supernatant was filtered and the quercetin concentration was calculated by HPLC analysis.

[2] = Single dose randomized, crossover pharmacokinetic study in healthy volunteers; assay type: in vivo, human; conditions: fasting, single oral dose, 500 mg film-coated tablets, mean
Description: A single dose randomized, crossover pharmacokinetic study in healthy volunteers under fasting conditions was performed using film-coated tablets containing 500 mg of (unformulated) quercetin dihydrate, 500 mg of quercetin (40%) powder solid dispersion (corresponding to 200 mg of quercetin dihydrate) and 250 mg of quercetin (40%) powder solid dispersion (corresponding to 100 mg of quercetin dihydrate).

Quercetin concentration (solubility) ([1]; Fasted state simulated gastric fluid (pH 1.6)): <LOD
Quercetin concentration (solubility) ([1]; Fasted state simulated intestinal fluid (pH 6.5)): 7.5 µg/mL
Quercetin concentration (solubility) ([1]; Fed state simulated intestinal fluid (pH 5.0)): 19.1 µg/mL
Cmax [2]: 10.93 ng/mL
AUC(0-inf) ([2]; human, in vivo): 90.1 ng·h/mL
SMILES: O=c1c(O)c(-c2ccc(O)c(O)c2)oc2cc(O)cc(O)c12 [Quercetin dihydrate, 2-(3,4-Dihydroxyphenyl)-3,5,7-trihydroxy-4H-chromen-4-one]
